We go through two compounds from patent publication US8487130B2, “Menthylcarboxamides and their use as cooling agents” (International Flavors & Fragrances Inc., priority 2009, dated 2013).

“Also recorded” adds a separate entry of the source.

Common to all, as to format: in vivo
Experiment [1] in a line: Flavor evaluation, tasted in water. To be noted: for flavor evaluation: cooling: 40 ppm in water.
Experiment [2] relates to descriptive analysis panel. The experiment can be described thus: Chewing gum cooling evaluation by descriptive analysis panel. To be noted: gum blended with Structure I. The method, then: The following gum base formulation was prepared: [table] Structure I by itself and in separate mixtures with monomenthyl glutarate, 2-isopropyl-N,2,3-trimethylbutyramid, N-ethyl-p-menthanecarboxamide and menthyl acetoacetate at levels detailed in the Tables below was blended with the gum base in a Sigma mixer. The resultant chewing gum blend was then manufactured into strips 1 inch in width and 0.1 inches in thickness. These strips were cut into lengths of 3 inches each. […] Samples were profiled by a highly trained descriptive analysis panel. The ballot consisted of the following terms: Total impact, total mint, cooling-mouth closed, cooling-breath in, nasal cooling—breath in, throat irritation, bitterness, tongue irritation, numbing. Each attribute was rated at discrete time points including 5 secs, 30 secs, 90 secs, 3 mins, 5 mins, 7 mins, 10 mins, 15 mins, 20 mins, and 30 mins. The following table details the panelist's results for the combination of Structure I with monomenthyl glutarate, 2-isopropyl-N,2,3-trimethylbutyramid, N-ethyl-p-menthanecarboxamide and menthyl acetoacetate at 3 minutes, 8 minutes, 20 minutes and 30 minute, 40 minute and 50 minute intervals. The amounts are listed in weight percent.

Experiment [3] in a line: Flavor evaluation, tasted in water. To be noted: 40 ppm in water. The text has this:
Flavor Evaluation of Structure I
Flavor evaluation of the (2S,5R)—N-[4-(4-Amino-4-oxobutyl)phenyl]-5-methyl-2-(propan-2-yl)cyclohexanecarboxamide in water at concentration 40 ppm: […]

Regarding `CC(C)[C@@H]1CC[C@@H](C)CC1C(=O)Nc1ccc(CC(N)=O)cc1` (stereo partly drawn) [Structure I, (2S,5R)—N-[4-(2-Amino-2-oxoethyl)phenyl]-5-methyl-2-(propan-2-yl)cyclohexanecarboxamide], the duration of cooling came out at 30 min in experiment [1] (1 ppm in water) and 30 min in experiment [1] (10 ppm in water, with breath in). Moreover, the “flavor properties (cooling) when tasted in water” value is “clean with slight cooling up front that builds with time to moderate level” in experiment [1] (1 ppm in water); “moderate throat and mouth cooling that lingers with some bitter notes in background” in experiment [1] (10 ppm in water). For the same compound, the panelist comment result is “Bitter, Brown, Sweet, slightly Vanilla” in experiment [2] (Panelist 1, 11:05 (start 11:04)); “Start to notice cooling” in experiment [2] (Panelist 1, 11:06 (start 11:04)); “Moderate cooling” in experiment [2] (Panelist 1, 11:08 (start 11:04)); “Moderate cooling in mouth and now back of the throat; nice on breath in; also recorded: Continued long lasting cooling” in experiment [2] (Panelist 1, 11:11 (start 11:04)); “Slight cooling moving to the front of the mouth” in experiment [2] (Panelist 1, 11:15 (start 11:04)); “Stable cooling all over, nice level” in experiment [2] (Panelist 1, 11:18 (start 11:04)). The panelist comment result in experiment [2] (Panelist 1, 11:22 (start 11:04)) is “Long lasting”; in experiment [2] (Panelist 2, 11:04 (start)), “Very sweet, brown”; in experiment [2] (Panelist 2, 11:07 (start 11:04)), “Started to notice cooling on breath and tip of the tongue”; in experiment [2] (Panelist 2, 11:09 (start 11:04)), “Started to notice on back of throat, continued to build in the rest of the mouth”; in experiment [2] (Panelist 2, 11:11 (start 11:04)), “Cooling consistent throughout mouth, slight irritation on the back of the throat”; in experiment [2] (Panelist 2, 11:15 (start 11:04)) it was “Cooling level the same”. The panelist comment entry in experiment [2] (Panelist 2, 11:24 (start 11:04)) is on record as “Still getting a good amount of cooling”; in experiment [2] (Panelist 2, 12:07 (start 11:04)), “Cooling is gone”; in experiment [2] (Panelist 3, 11:07 (start 11:04)) it was “Cooling on the back of the throat”; in experiment [2] (Panelist 3, 11:14 (start 11:04)), “Concentrated on the back of the throat; irritating”; in experiment [2] (Panelist 3, 11:22 (start 11:04)), “Full cooling after 20 min”; in experiment [2] (Panelist 4, 11:07 (start 11:04)), “Cooling perception begins (mild)”. In addition, the panelist comment entry in experiment [2] (Panelist 4, 11:09 (start 11:04)) is “Cooling pleasant, builds to moderate cooling on the front/tip of tongue”; in experiment [2] (Panelist 4, 11:11 (start 11:04)), “Intensity max reached”; in experiment [2] (Panelist 4, 11:14 (start 11:04)), “Cooling plateau, maintained. Delocalized all over mouth”; in experiment [2] (Panelist 4, 11:19 (start 11:04)) it was “Remains intense”; in experiment [2] (Panelist 4, 11:20 (start 11:04)), “Moves to throat (mild) very intense on tip of the tongue and center”; in experiment [2] (Panelist 4, 11:24 (start 11:04)) it was “Still cooling”. In addition, the panelist comment result in experiment [2] (Panelist 4, 12:00 (start 11:04)) was “Cooling remains”; in experiment [2] (Panelist 4, 12:15 (start 11:04)) it was “Cooling diminished significantly”.
With `CC(C)[C@@H]1CC[C@@H](C)CC1C(=O)Nc1ccc(CCCC(N)=O)cc1` (stereo partly drawn) [(2S,5R)—N-[4-(4-Amino-4-oxobutyl)phenyl]-5-methyl-2-(propan-2-yl)cyclohexanecarboxamide], the “flavor evaluation: cooling” value in experiment [1] (30 minutes) is “localized on tip”; in experiment [1] (~3.5 minutes) it was “beginning to build”; in experiment [3] (after 20 minutes) it was “Still going strong after 20 minutes and cooling on gums”; in experiment [3] (~40 sec) it was “cooling just beginning, throat irritation, slight numbing on tip of tongue, mouth-watering, mouth coating—all over”; in experiment [3] (~7 minutes), “continuing to build”. Also, the “flavor evaluation: onset and character of cooling” value in experiment [3] is “Late onset of cooling after expectorating, peppery on tip of tongue and back of throat, cooling on tip, irritating on back of throat—sore throat, cooling building on tip of tongue, peppery in esophagus”. In addition, in experiment [3], the “flavor evaluation: taste” value is “Umami! Ribotide-like. Umami upfront”.
